Settings: Liquid, Twin ebulliometer

CCCCCCC [heptane]
Settings	vapor or sublimation pressure [kPa]
372.08 K	102.9
374.5 K	110.39
377.68 K	120.89
384.39 K	145.56
389.41 K	166.41
393.58 K	185.5
396.7 K	200.79
401.26 K	224.89
405.44 K	248.92
409.66 K	275.09
413.8 K	302.76
419.17 K	341.76
423.85 K	378.8
428.69 K	420.15
433.81 K	467.65
438.86 K	518.27
443.5 K	568.27
447.95 K	619.76
451.8 K	666.97
456.35 K	726.16
459.78 K	773.29
465.07 K	850.62
469.84 K	925.23
473.39 K	983.9
476.11 K	1030.6
479.57 K	1092.4
483.67 K	1169.4
487.36 K	1242.3
490.81 K	1313.4
494.11 K	1384.2
496.77 K	1443.4
500.01 K	1518.2
503.59 K	1604.1
507.39 K	1699.5
510.95 K	1793
515.27 K	1911.6
518.99 K	2019.1
522.22 K	2116.1
525.53 K	2219.7
528.3 K	2309.8
531.47 K	2416.5
534.57 K	2525.7
537.2 K	2621.8

From the NIST ThermoML archive (doi:10.1021/je049562e)
